Patent publication US8168667B2 (Galapagos NV, priority 2006, dated 2012)
Like-named read-outs stand apart in the source and are kept apart here.

Biological target: T1, human androgen receptor (hAR) (Homo sapiens, UniProt P10275)
T1 sequence (P10275 1-920): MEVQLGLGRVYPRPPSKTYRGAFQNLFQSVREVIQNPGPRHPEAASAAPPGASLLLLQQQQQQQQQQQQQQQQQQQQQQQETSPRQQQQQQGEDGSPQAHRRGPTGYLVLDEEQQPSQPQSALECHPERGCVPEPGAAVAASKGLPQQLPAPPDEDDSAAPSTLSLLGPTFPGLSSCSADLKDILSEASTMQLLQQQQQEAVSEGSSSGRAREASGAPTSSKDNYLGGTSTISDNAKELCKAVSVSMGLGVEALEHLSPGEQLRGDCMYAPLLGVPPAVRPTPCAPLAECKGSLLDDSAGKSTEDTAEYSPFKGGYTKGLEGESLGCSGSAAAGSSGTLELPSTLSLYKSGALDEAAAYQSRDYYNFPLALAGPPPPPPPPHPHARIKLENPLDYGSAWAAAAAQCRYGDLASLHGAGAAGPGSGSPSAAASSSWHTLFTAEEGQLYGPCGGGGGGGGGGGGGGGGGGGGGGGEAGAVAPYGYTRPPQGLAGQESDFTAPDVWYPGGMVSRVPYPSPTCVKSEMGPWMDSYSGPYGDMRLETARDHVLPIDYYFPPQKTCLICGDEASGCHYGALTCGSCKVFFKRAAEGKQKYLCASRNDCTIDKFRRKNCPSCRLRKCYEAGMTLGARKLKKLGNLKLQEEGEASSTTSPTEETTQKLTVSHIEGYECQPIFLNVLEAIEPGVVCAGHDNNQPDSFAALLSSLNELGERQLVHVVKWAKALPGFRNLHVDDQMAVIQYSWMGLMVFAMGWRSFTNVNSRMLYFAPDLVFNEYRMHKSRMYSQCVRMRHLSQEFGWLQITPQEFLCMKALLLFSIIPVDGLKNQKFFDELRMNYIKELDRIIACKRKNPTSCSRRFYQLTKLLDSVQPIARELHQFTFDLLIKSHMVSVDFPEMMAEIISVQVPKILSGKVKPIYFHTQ
Test: Functional response test: hAR transactivation (luciferase reporter) in HALP2 cells
Assay type: cell-based
Settings: for EC50: agonism, HALP2 cells (HeLa, hAR + ARE-luciferase), 20 hours at 37° C.
Source text: This test constitutes a method of identifying pure or partial agonists which mimic the effects of natural hormones, such as DHT (dihydrotestosterone) in the present case or, on the other hand, antagonists which inhibit them.
For this transactivation test, plasmids encoding a reporter gene and the human androgen receptor (hAR) are introduced together by transfection into the HeLa cell line. The reporter plasmid contains luciferase cDNA under the control of the AREs contained in the promoter sequences of the probasin gene (3xpbAREminicoll-luciferase/pGL3-puro). The expression of the reporter gene constitutes an indication of the transcriptional activity of hAR. It also encodes a protein allowing the cells expressing it to resist a treatment with puromycin. The plasmid encoding hAR contains the cDNA of hAR under the control of the Cytomegalovirus (CMV) promoter. It also encodes a protein allowing the cells expressing it to resist a treatment with neomycin. The treatment of cells with increasing amounts of potentially agonistic compounds will increase the expression of the reporter gene. To detect antagonists, on the other hand, increasing doses of test compounds are tested in the presence of […] of DHT. The expression of the reporter gene, which is constant for each dose of DHT, decreases when the concentration of the test compounds increases.
For this test, HeLa cells were obtained from the American Type Culture Collection (Rockville, Md.) and cultivated in DMEM medium containing 4.5 g/l of glucose, supplemented with Glutamax and with nonessential amino-acids and with 10% of foetal calf serum (SVF; Dominique Dutscher).
On the day before transfection, a million cells were seeded in DMEM medium without phenol red, supplemented with Glutamax and with desteroided SVF (5%) in Petri dishes. The cells were transfected with 4 μg of the puromycin resistance plasmids pcDNA3-hAR and 3xpbAREminicoll-luciferase/pGL3 using the reagent “Lipofectamine plus” (Invitrogen), following the supplier's recommendations. The day after transfection, the cells were seeded to different cell densities (10,000 to 100,000 cellules per Petri dish). Two days after transfection, the transfected cells were selected in DMEM medium without phenol red, supplemented with Glutamax and with desteroided SVF (5%) containing 400 μg/mL of G418 (Invitrogen) and 150 ng/mL of puromycin (Sigma). The culture medium was renewed weekly until resistant clones appeared. The resistant clones were removed and amplified before being tested for their functional response. […]
The functional response test was conducted on 96-well plates. The HALP2 cells were seeded (30,000 cells per well) 24 hours before the phase of stimulation in DMEM medium containing 4.5 g/L of glucose, supplemented with Glutamax and nonessential amino-acids, and with desteroided SVF (5%).
On the day of stimulation, the seeding medium was replaced by DMEM medium without phenol red, supplemented with Glutamax and with desteroided SVF (5%). […] The cells were placed in contact with the compounds for 20 hours at 37° C.

[1] = antagonism, concentration which increases the EC50 of the DHT by a factor of 2, Schild regression, HALP2 cells

SMILES | EC50 | KSchild (nM) potency [1] | KSchild (nM) potency
O=C1C(c2ccc(O)cc2)N(Cc2ccsc2)C(=O)N1c1ccc(Cl)c(Cl)c1 (centres unmarked) [Example 10, 1-(3,4-dichlorophenyl)-4-(4-hydroxyphenyl)-3-[(thiophen-3-yl)methyl]imidazolidine-2,5-dione] | 16.4 nM | 13.69 nM | –
CCCN1C(=O)N(c2ccc(F)c(Cl)c2)C(=O)C1c1ccc(O)cc1 (centres unmarked) [Example 11, 1-(3-chloro-4-fluorophenyl)-4-(4-hydroxyphenyl)-3-propylimidazolidine-2,5-dione] | 80 nM | 80 nM | –
C=CCN1C(=O)N(c2ccc(C#N)c(C(F)(F)F)c2)C(=O)C1c1ccc(O)cc1 (centres unmarked) [Example 12, 4-[2,5-dioxo-4-(4-hydroxyphenyl)-3-(2-propenyl)imidazolidin-1-yl]-2-trifluoromethyl-benzonitrile] | – | – | 24.49 nM
C=CCN1C(=O)N(c2ccc([N+](=O)[O-])c(C(F)(F)F)c2)C(=O)C1c1ccc(O)cc1 (centres unmarked) [Example 13, 1-(4-nitro-3-trifluoromethylphenyl)-4-(4-hydroxyphenyl)-3-(2-propenyl)imidazolidine-2,5-dione] | – | – | 122.47 nM
C=CCN1C(=O)N(c2ccc(F)c(F)c2)C(=O)C1c1ccc(O)cc1 (centres unmarked) [Example 14, 1-(3,4-difluorophenyl)-4-(4-hydroxyphenyl)-3-(2-propenyl)imidazolidine-2,5-dione] | 30 nM | 30 nM | –
CCOC(=O)CCN1C(=O)N(c2ccc(Cl)c(Cl)c2)C(=O)C1c1ccc(O)cc1 (centres unmarked) [Example 15, Ethyl 3-[1-(3,4-dichlorophenyl)-4-(4-hydroxyphenyl)-2,5-dioxoimidazolidin-3-yl]propionate] | 11.3 nM | 11.29 nM | –
O=C1C(c2ccc(O)cc2)N(Cc2ccsc2)C(=S)N1c1cccc(Cl)c1Cl (centres unmarked) [Example 17, 1-(2,3-dichlorophenyl)-4-(4-hydroxyphenyl)-3-[(thiophen-3-yl)methyl]-2-thioxo-imidazolidin-5-one] | 2000 nM | 2000 nM | –
O=C1C(c2ccc(O)cc2)N(Cc2ccsc2)C(=S)N1c1ccc(Cl)cc1Cl (centres unmarked) [Example 18, 1-(2,4-dichlorophenyl)-4-(4-hydroxyphenyl)-3-[(thiophen-3-yl)methyl]-2-thioxo-imidazolidin-5-one] | 5660 nM | 5656.85 nM | –
O=C1C(c2ccc(O)cc2)N(Cc2ccsc2)C(=S)N1c1ccc(Cl)c(Cl)c1 (centres unmarked) [Example 19, 1-(3,4-dichlorophenyl)-4-(4-hydroxyphenyl)-3-[(thiophen-3-yl)methyl]-2-thioxo-imidazolidin-5-one] | 195 nM | 154.92 nM | –
C=CCN1C(=O)N(c2ccc(Cl)c(Cl)c2)C(=O)C1(C)c1ccc(O)cc1 (centres unmarked) [Example 20, 1-(3,4-dichlorophenyl)-4-(4-hydroxyphenyl)-4-methyl-3-(2-propenyl)imidazolidine-2,5-dione] | 4 nM | 3 nM | –
C#CCN1C(=O)N(c2ccc(Cl)c(Cl)c2)C(=O)C1(C)c1ccc(O)cc1 (centres unmarked) [Example 21, 1-(3,4-dichlorophenyl)-4-(4-hydroxyphenyl)-4-methyl-3-(2-propynyl)imidazolidine-2,5-dione] | – | – | 3 nM
CC1(c2ccc(O)cc2)C(=O)N(c2ccc(Cl)c(Cl)c2)C(=O)N1CCCCO (centres unmarked) [Example 22, 1-(3,4-dichlorophenyl)-3-(4-hydroxybutyl)-4-(4-hydroxyphenyl)-4-methylimidazolidine-2,5-dione] | 15 nM | 15 nM | –
C=CCN1C(=O)N(c2ccc(C#N)c(C(F)(F)F)c2)C(=O)C1(C)c1ccc(O)cc1 (centres unmarked) [Example 23, 4-[2,5-dioxo-4-(4-hydroxyphenyl)-4-methyl-3-(2-propenyl)imidazolidin-1-yl]-2-trifluoromethylbenzonitrile] | – | 2 nM | –
CC1(c2ccc(O)cc2)C(=O)N(c2ccc(C#N)c(C(F)(F)F)c2)C(=O)N1CCCCO (centres unmarked) [Example 24, 4-[2,5-dioxo-3-(4-hydroxybutyl)-4-(4-hydroxyphenyl)-4-methylimidazolidin-1-yl]-2-trifluoromethylbenzonitrile] | – | – | 15 nM
CC1(c2ccc(O)cc2)C(=O)N(c2ccc(C#N)c(C(F)(F)F)c2)C(=O)N1C1CC1 (centres unmarked) [Example 24.1, 4-[3-cyclopropyl-2,5-dioxo-4-(4-hydroxyphenyl)-4-methylimidazolidin-1-yl]-2-trifluoromethylbenzonitrile] | – | – | 10 nM
CC1(c2ccc(O)cc2)C(=O)N(c2ccc(C#N)c(C(F)(F)F)c2)C(=O)N1C1CCCC1 (centres unmarked) [Example 24.2, 4-[3-cyclopentyl-2,5-dioxo-4-(4-hydroxyphenyl)-4-methylimidazolidin-1-yl]-2-trifluoromethylbenzonitrile] | – | 20 nM | –
Cc1cc([N+](=O)[O-])ccc1N1C(=O)N(C)C(C)(c2ccc(O)cc2)C1=O (centres unmarked) [Example 26, 3,4-dimethyl-4-(4-hydroxyphenyl)-1-(2-methyl-4-nitro-phenyl)imidazolidine-2,5-dione] | – | 20 nM | –
Cc1cc(Br)ccc1N1C(=O)N(C)C(C)(c2ccc(O)cc2)C1=O (centres unmarked) [Example 27, 1-(4-bromo-2-methylphenyl)-3,4-dimethyl-4-(4-hydroxyphenyl)imidazolidine-2,5-dione] | 13.4 nM | 10.63 nM | –
Cc1cc(Cl)ccc1N1C(=O)N(C)C(C)(c2ccc(O)cc2)C1=O (centres unmarked) [Example 28, 1-(4-chloro-2-methylphenyl)-3,4-dimethyl-4-(4-hydroxyphenyl)imidazolidine-2,5-dione] | 24.5 nM | 24.49 nM | –
CN1C(=O)N(c2ccc(C(F)(F)F)cc2Cl)C(=O)C1(C)c1ccc(O)cc1 (centres unmarked) [Example 29, 1-(2-chloro-4-trifluoromethylphenyl)-3,4-dimethyl-4-(4-hydroxyphenyl)imidazolidine-2,5-dione] | 60 nM | 60 nM | –
CN1C(=O)N(c2ccc(Cl)c(Cl)c2Cl)C(=O)C1(C)c1ccc(O)cc1 (centres unmarked) [Example 30, 3,4-dimethyl-4-(4-hydroxyphenyl)-1-(2,3,4-trichlorophenyl)imidazolidine-2,5-dione] | 15 nM | 15 nM | –
CN1C(=O)N(c2ccc(C#N)c3ccccc23)C(=O)C1(C)c1ccc(O)cc1 (centres unmarked) [Example 31, 4-[3,4-dimethyl-2,5-dioxo-4-(4-hydroxyphenyl)imidazolidin-1-yl]naphthonitrile] | – | – | 800 nM
CN1C(=O)N(c2ccc(Cl)c3ccccc23)C(=O)C1(C)c1ccc(O)cc1 (centres unmarked) [Example 32, 1-(4-chloronaphthyl)-3,4-dimethyl-4-(4-hydroxyphenyl)imidazolidine-2,5-dione] | 300 nM | 300 nM | –
CN1C(=O)N(c2ccc(C#N)c3c2CCC3)C(=O)C1(C)c1ccc(O)cc1 (centres unmarked) [Example 33, 2,3-dihydro-7-[3,4-dimethyl-2,5-dioxo-4-(4-hydroxyphenyl)imidazolidin-1-yl]-4(1H)-indenenitrile] | – | – | 0.78 nM
